Measured values taken from patent US8299111B2, “Compounds which modulate the CB2 receptor” (Boehringer Ingelheim International GmbH, priority 2006, dated 2012).

Molecular target: T1, human CB2R (Homo sapiens, UniProt P34972)
T1 construct: host or cells: CHO cells
Assay: CB2R mediated modulation of cAMP synthesis
Assay type: cell-based
Conditions: found through the use of the above described assays (binding and cAMP); CHO cells expressing human CB2R, forskolin-stimulated cAMP
Procedure, shortened: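 CHO cells expressing human CB2R were treated for 30 min at 37 °C with compound in buffer containing 1 mM IBMX, 0.25% BSA and 10 uM forskolin. cAMP was measured after lysis. EC50 is the concentration giving 50% inhibition of forskolin-stimulated cAMP, scaled to the level set by 1 uM CP55940, fitted by four-parameter logistic.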

T1 sequence (P34972 whole entry): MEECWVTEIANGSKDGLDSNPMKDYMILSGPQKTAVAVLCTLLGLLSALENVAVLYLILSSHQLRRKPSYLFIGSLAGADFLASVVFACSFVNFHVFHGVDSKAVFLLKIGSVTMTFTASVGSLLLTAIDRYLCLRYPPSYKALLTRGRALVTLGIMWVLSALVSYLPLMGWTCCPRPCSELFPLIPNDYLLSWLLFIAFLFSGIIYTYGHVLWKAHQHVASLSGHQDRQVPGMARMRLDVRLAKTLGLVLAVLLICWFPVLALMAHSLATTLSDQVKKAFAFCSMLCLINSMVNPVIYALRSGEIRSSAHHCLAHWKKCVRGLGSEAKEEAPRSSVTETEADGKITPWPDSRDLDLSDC

| agonistic activity | Structure (SMILES) |
| --- | --- |
| agonistic activity | COc1ccc(S(=O)(=O)C(C)(C)C(=O)Nc2nc(C)c(C(C)(C)C)s2)cc1 [N-(5-tert-Butyl-4-methyl-thiazol-2-yl)-2-(4-methoxy-benzenesulfonyl)-2-methyl-propionamide] |
| agonistic activity | Cc1nc(NC(=O)C(C)(C)S(=O)(=O)c2cccc(C(F)(F)F)c2)sc1C(C)(C)C [N-(5-tert-Butyl-4-methyl-thiazol-2-yl)-2-methyl-2-(3-trifluoromethyl-benzenesulfonyl)-propionamide] |
| agonistic activity | Cc1nc(NC(=O)C(C)(C)S(=O)(=O)c2ccc(C(F)(F)F)nc2)sc1C(C)(C)C [N-(5-tert-Butyl-4-methyl-thiazol-2-yl)-2-methyl-2-(6-trifluoromethyl-pyridine-3-sulfonyl)-propionamide] |
| agonistic activity | Cc1nc(NC(=O)C(C)(C)S(=O)(=O)c2ccc3ccccc3c2)sc1C(C)(C)C [N-(5-tert-Butyl-4-methyl-thiazol-2-yl)-2-methyl-2-(naphthalene-2-sulfonyl)-propionamide] |
| agonistic activity | Cc1ccccc1S(=O)(=O)C(C)(C)C(=O)Nc1nc(C)c(C(C)(C)C)s1 [N-(5-tert-Butyl-4-methyl-thiazol-2-yl)-2-methyl-2-(toluene-2-sulfonyl)-propionamide] |
| agonistic activity | Cc1ccc(S(=O)(=O)C(C)(C)C(=O)Nc2nc(C)c(C(C)(C)C)s2)cc1 [N-(5-tert-Butyl-4-methyl-thiazol-2-yl)-2-methyl-2-(toluene-4-sulfonyl)-propionamide] |
| agonistic activity | Cc1nc(NC(=O)C(C(C)C)S(=O)(=O)c2ccc(C(F)(F)F)cc2)sc1C(C)(C)C (centres unmarked) [N-(5-tert-Butyl-4-methyl-thiazol-2-yl)-3-methyl-2-(4-trifluoromethyl-benzenesulfonyl)-butyramide] |
| agonistic activity | CC(C)(C)c1nnc(NC(=O)C(C)(C)S(=O)(=O)c2ccc(Cl)cc2)s1 [N-(5-tert-Butyl-[1,3,4]thiadiazol-2-yl)-2-(4-chloro-benzenesulfonyl)-2-methyl-propionamide] |
| agonistic activity | CC1(C)CCc2cc(S(=O)(=O)C(C)(C)C(=O)Nc3cc(C(C)(C)C)on3)ccc2O1 [N-(5-tert-Butyl-isoxazol-3-yl)-2-(2,2-dimethyl-chroman-6-sulfonyl)-2-methyl-propionamide] |
| agonistic activity | CC(C)(C)c1cc(NC(=O)C(C)(C)S(=O)(=O)c2ccc(Cl)cc2Cl)no1 [N-(5-tert-Butyl-isoxazol-3-yl)-2-(2,4-dichloro-benzenesulfonyl)-2-methyl-propionamide] |
| agonistic activity | CC(C)(C)c1cc(NC(=O)C(C)(C)S(=O)(=O)c2ccc(F)cc2F)no1 [N-(5-tert-Butyl-isoxazol-3-yl)-2-(2,4-difluoro-benzenesulfonyl)-2-methyl-propionamide] |
| agonistic activity | CC(C)(C)c1cc(NC(=O)C(C)(C)S(=O)(=O)c2cc(F)ccc2F)no1 [N-(5-tert-Butyl-isoxazol-3-yl)-2-(2,5-difluoro-benzenesulfonyl)-2-methyl-propionamide] |
| agonistic activity | CC(C)(C)c1cc(NC(=O)C(C)(C)S(=O)(=O)c2ccccc2F)no1 [N-(5-tert-Butyl-isoxazol-3-yl)-2-(2-fluoro-benzenesulfonyl)-2-methyl-propionamide] |
| agonistic activity | CC(C)(C)c1cc(NC(=O)C(C)(C)S(=O)(=O)c2ccc(F)c(Cl)c2)no1 [N-(5-tert-Butyl-isoxazol-3-yl)-2-(3-chloro-4-fluoro-benzenesulfonyl)-2-methyl-propionamide] |
| agonistic activity | CC(C)(C)c1cc(NC(=O)C(C)(C)S(=O)(=O)c2cccc(C#N)c2)no1 [N-(5-tert-Butyl-isoxazol-3-yl)-2-(3-cyano-benzenesulfonyl)-2-methyl-propionamide] |
| agonistic activity | Cc1ccc(S(=O)(=O)C(C)(C)C(=O)Nc2cc(C(C)(C)C)on2)cc1F [N-(5-tert-Butyl-isoxazol-3-yl)-2-(3-fluoro-4-methyl-benzenesulfonyl)-2-methyl-propionamide] |
| agonistic activity | CC(C)(C)c1cc(NC(=O)C(C)(C)S(=O)(=O)c2cccc(F)c2)no1 [N-(5-tert-Butyl-isoxazol-3-yl)-2-(3-fluoro-benzenesulfonyl)-2-methyl-propionamide] |
| agonistic activity | COc1ccc(S(=O)(=O)C(C)(C)C(=O)Nc2cc(C(C)(C)C)on2)cc1 [N-(5-tert-Butyl-isoxazol-3-yl)-2-(4-methoxy-benzenesulfonyl)-2-methyl-propionamide] |
| agonistic activity | CC(C(=O)Nc1cc(C(C)(C)C)on1)S(=O)(=O)c1ccc(C(F)(F)F)cc1 (centres unmarked) [N-(5-tert-Butyl-isoxazol-3-yl)-2-(4-trifluoromethyl-benzenesulfonyl)-propionamide] |
| agonistic activity | COc1ccc(S(=O)(=O)C(C)(C)C(=O)Nc2cc(C(C)(C)C)on2)cn1 [N-(5-tert-Butyl-isoxazol-3-yl)-2-(6-methoxy-pyridine-3-sulfonyl)-2-methyl-propionamide] |
| agonistic activity | CC(C)(C)c1cc(NC(=O)C(C)(C)S(=O)(=O)c2cccc(OC(F)(F)F)c2)no1 [N-(5-tert-Butyl-isoxazol-3-yl)-2-methyl-2-(3-trifluoromethoxy-benzenesulfonyl)-propionamide] |

The next lines start with the compound.

| Structure (SMILES) | agonistic activity |
| --- | --- |
| Cc1nc(NC(=O)C(C)(C)S(=O)(=O)c2cccc(F)c2)sc1C(C)(C)C [N-(5-tert-Butyl-4-methyl-thiazol-2-yl)-2-(3-fluoro-benzenesulfonyl)-2-methyl-propionamide] | agonistic activity |
| Cc1nc(NC(=O)C(C)(C)S(=O)(=O)c2ccc(Cl)cc2)sc1C(C)(C)C [N-(5-tert-Butyl-4-methyl-thiazol-2-yl)-2-(4-chloro-benzenesulfonyl)-2-methyl-propionamide] | agonistic activity |
| Cc1nc(NC(=O)C(C)(C)S(=O)(=O)c2ccc(C(F)(F)F)cc2)sc1C(C)(C)C [N-(5-tert-Butyl-4-methyl-thiazol-2-yl)-2-methyl-2-(4-trifluoromethyl-benzenesulfonyl)-propionamide] | agonistic activity |
| Cc1ccc(S(=O)(=O)C(C)(C)C(=O)Nc2cc(C(C)(C)C)on2)c(F)c1 [N-(5-tert-Butyl-isoxazol-3-yl)-2-(2-fluoro-4-methyl-benzenesulfonyl)-2-methyl-propionamide] | agonistic activity |
| CC(C)(C)c1cc(NC(=O)C(C)(C)S(=O)(=O)c2ccc(Cl)c(Cl)c2)no1 [N-(5-tert-Butyl-isoxazol-3-yl)-2-(3,4-dichloro-benzenesulfonyl)-2-methyl-propionamide] | agonistic activity |
| COc1ccc(S(=O)(=O)C(C)(C)C(=O)Nc2cc(C(C)(C)C)on2)cc1F [N-(5-tert-Butyl-isoxazol-3-yl)-2-(3-fluoro-4-methoxy-benzenesulfonyl)-2-methyl-propionamide] | agonistic activity |
| CC(C)(C)c1cc(NC(=O)C(C)(C)S(=O)(=O)c2cc(Cl)c(Cl)s2)no1 [N-(5-tert-Butyl-isoxazol-3-yl)-2-(4,5-dichloro-thiophene-2-sulfonyl)-2-methyl-propionamide] | agonistic activity |
| CC(C)(C)c1cc(NC(=O)C(C)(C)S(=O)(=O)c2ccc(Cl)cc2F)no1 [N-(5-tert-Butyl-isoxazol-3-yl)-2-(4-chloro-2-fluoro-benzenesulfonyl)-2-methyl-propionamide] | agonistic activity |
| CC(C)(C)c1cc(NC(=O)C(C)(C)S(=O)(=O)c2ccc(Cl)cc2)no1 [N-(5-tert-Butyl-isoxazol-3-yl)-2-(4-chloro-benzenesulfonyl)-2-methyl-propionamide] | agonistic activity |
| CC(C)(C)c1cc(NC(=O)C(C)(C)S(=O)(=O)c2ccc(C#N)cc2F)no1 [N-(5-tert-Butyl-isoxazol-3-yl)-2-(4-cyano-2-fluoro-benzenesulfonyl)-2-methyl-propionamide] | agonistic activity |
| CC(C)(C)c1cc(NC(=O)C(C)(C)S(=O)(=O)c2ccc(C#N)cc2)no1 [N-(5-tert-Butyl-isoxazol-3-yl)-2-(4-cyano-benzenesulfonyl)-2-methyl-propionamide] | agonistic activity |
| CC(C)(C)c1cc(NC(=O)C(C)(C)S(=O)(=O)c2ccc(F)cc2)no1 [N-(5-tert-Butyl-isoxazol-3-yl)-2-(4-fluoro-benzenesulfonyl)-2-methyl-propionamide] | agonistic activity |
| CC(C)c1ccc(S(=O)(=O)C(C)(C)C(=O)Nc2cc(C(C)(C)C)on2)cc1 [N-(5-tert-Butyl-isoxazol-3-yl)-2-(4-isopropyl-benzenesulfonyl)-2-methyl-propionamide] | agonistic activity |
| CC(C)(C)c1cc(NC(=O)C(C)(C)S(=O)(=O)c2ccc(S(C)(=O)=O)cc2)no1 [N-(5-tert-Butyl-isoxazol-3-yl)-2-(4-methanesulfonyl-benzenesulfonyl)-2-methyl-propionamide] | agonistic activity |
| CC(C)(C)c1cc(NC(=O)CS(=O)(=O)c2ccc(C(F)(F)F)cc2)no1 [N-(5-tert-Butyl-isoxazol-3-yl)-2-(4-trifluoromethyl-benzenesulfonyl)-acetamide] | agonistic activity |
| CC(C)(C)c1cc(NC(=O)C(C)(C)S(=O)(=O)c2ccc(Cl)s2)no1 [N-(5-tert-Butyl-isoxazol-3-yl)-2-(5-chloro-thiophene-2-sulfonyl)-2-methyl-propionamide] | agonistic activity |
| CC(C)(C)c1cc(NC(=O)C(C)(C)S(=O)(=O)c2ccc(Cl)nc2)no1 [N-(5-tert-Butyl-isoxazol-3-yl)-2-(6-chloro-pyridine-3-sulfonyl)-2-methyl-propionamide] | agonistic activity |
